Reference: patent publication US7504432B2 (priority 2000, dated 2009)

Tests used:
[1] = molecular target: T1, m2 muscarinic acetylcholine receptor (Homo sapiens, UniProt P08172); experiment: biochemical; format: binding
T1 construct: purchased Receptor Biology, Inc; host or cells: CHO cells
T1 sequence (P08172 1-466): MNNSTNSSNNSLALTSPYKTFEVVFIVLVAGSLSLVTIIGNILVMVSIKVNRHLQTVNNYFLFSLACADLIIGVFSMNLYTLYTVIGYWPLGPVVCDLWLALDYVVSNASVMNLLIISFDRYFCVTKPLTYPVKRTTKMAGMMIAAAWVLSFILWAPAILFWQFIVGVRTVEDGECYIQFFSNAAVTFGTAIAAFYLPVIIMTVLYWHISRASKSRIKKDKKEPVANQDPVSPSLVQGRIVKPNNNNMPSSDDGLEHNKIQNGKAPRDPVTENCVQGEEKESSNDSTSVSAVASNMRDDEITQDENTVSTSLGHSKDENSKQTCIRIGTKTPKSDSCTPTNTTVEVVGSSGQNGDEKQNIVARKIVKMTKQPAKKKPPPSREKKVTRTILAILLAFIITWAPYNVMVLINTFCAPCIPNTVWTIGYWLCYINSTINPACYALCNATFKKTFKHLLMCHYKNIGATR

[2] = molecular target: T2, m3 muscarinic acetylcholine receptor (Homo sapiens, UniProt P20309); experiment: biochemical; format: binding
T2 construct: purchased Receptor Biology, Inc; host or cells: CHO cells

[3] = molecular target: T3, M2 receptor in isolated rat right atrium (Rattus norvegicus, UniProt P10980); experiment: biochemical
T3 construct: A male SD strain rat (weighing 300-500 g) was killed by exsanguination, and the right atrium was isolated; from tissue; host or cells: isolated right atrium of male SD rat
T3 sequence (P10980 1-466): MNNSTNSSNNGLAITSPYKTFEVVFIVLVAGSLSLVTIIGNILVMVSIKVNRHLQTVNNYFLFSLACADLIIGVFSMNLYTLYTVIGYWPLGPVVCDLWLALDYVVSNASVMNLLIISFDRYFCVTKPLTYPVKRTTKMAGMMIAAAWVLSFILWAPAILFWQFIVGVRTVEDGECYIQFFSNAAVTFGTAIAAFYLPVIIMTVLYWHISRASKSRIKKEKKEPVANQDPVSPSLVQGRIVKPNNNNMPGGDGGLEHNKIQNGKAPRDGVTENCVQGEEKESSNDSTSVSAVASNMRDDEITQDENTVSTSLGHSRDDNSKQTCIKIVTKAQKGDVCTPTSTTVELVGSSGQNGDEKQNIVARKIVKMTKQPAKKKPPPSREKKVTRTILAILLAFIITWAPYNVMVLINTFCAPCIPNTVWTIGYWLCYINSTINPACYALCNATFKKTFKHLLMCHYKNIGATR

[4] = molecular target: T4, airway M3 receptor in isolated rat trachea (Rattus norvegicus, UniProt P08483); experiment: biochemical
T4 construct: A male SD strain rat (weighing 300-500 g) was killed by exsanguination, and the trachea was isolated; from tissue; host or cells: isolated trachea of male SD rat

muscarinic M3 receptor = molecular target: T5, muscarinic M3 receptor (Canis lupus familiaris, UniProt A0A8I3N190); details: dog, in vivo
T5 construct: 12-36 months old male beagle dogs (weighing 10-15 kg) were used; from tissue; host or cells: anesthetized male beagle dogs, airway in vivo
T5 sequence (A0A8I3N190 1-590): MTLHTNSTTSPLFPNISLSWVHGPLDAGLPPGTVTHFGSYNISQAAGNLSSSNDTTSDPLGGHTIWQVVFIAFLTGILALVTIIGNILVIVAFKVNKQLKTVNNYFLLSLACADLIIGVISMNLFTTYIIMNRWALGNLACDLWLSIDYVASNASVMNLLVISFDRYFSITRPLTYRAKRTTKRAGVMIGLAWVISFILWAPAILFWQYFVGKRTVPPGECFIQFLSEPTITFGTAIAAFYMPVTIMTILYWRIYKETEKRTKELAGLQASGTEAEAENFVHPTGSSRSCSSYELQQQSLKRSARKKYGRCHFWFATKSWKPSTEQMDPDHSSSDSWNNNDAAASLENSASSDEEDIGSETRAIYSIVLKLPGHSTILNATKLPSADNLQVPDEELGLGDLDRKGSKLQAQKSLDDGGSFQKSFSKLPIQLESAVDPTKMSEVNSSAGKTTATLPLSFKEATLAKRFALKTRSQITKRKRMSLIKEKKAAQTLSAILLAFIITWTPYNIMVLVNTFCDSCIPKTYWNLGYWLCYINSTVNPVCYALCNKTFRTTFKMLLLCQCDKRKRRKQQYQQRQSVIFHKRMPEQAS

T4 sequence (P08483 whole entry): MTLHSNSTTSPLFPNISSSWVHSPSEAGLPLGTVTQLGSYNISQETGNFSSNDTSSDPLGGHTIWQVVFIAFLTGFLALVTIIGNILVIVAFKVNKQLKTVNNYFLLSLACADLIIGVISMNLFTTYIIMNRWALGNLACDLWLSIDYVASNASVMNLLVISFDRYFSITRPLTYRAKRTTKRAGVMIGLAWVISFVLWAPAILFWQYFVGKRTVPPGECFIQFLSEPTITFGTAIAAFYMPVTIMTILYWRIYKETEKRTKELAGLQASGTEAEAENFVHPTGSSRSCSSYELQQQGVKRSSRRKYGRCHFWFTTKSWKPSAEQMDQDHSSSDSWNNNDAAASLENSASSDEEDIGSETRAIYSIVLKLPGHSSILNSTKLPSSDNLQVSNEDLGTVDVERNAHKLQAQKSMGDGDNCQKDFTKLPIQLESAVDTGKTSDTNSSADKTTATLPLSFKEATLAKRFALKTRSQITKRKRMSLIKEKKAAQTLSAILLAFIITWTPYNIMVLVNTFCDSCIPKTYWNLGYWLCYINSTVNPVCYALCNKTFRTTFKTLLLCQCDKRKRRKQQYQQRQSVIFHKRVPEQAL
T2 sequence (P20309 whole entry): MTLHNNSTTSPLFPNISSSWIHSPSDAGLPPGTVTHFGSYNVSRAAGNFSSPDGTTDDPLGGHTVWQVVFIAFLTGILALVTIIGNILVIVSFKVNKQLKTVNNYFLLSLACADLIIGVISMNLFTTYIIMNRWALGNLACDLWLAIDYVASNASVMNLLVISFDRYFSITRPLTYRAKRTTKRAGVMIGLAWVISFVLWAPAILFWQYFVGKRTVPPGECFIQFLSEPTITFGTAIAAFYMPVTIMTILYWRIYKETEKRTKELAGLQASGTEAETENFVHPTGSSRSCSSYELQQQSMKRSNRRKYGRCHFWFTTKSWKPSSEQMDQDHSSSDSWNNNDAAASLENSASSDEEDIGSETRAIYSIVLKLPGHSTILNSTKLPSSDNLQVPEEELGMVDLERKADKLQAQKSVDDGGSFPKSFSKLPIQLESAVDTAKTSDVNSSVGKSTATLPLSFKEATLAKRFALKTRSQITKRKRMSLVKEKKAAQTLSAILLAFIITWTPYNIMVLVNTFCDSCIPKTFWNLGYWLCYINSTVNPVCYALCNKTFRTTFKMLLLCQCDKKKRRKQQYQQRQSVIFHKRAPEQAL

Question: `N=CN1CCC(CCOC(=O)[C@](O)(c2ccccc2)[C@@H]2CCC(F)(F)C2)CC1` [Example 54, 2-(1-(Iminomethyl)piperidin-4-yl)ethyl (2R)-2-((1R)-3,3-difluorocyclopentyl)-2-hydroxy-2-phenylethanoate] was tested. Which Ki [1] did it give?
Answer: 4.76 nM

Question: What about the Ki [2] of the same compound?
Answer: 0.079 nM

Question: And the “m2/m3 (ratio of Ki)” value [2]?
Answer: 60.2

Question: And the Kb [3]?
Answer: 10.6 nM

Question: What about the Kb [4] of the same compound?
Answer: 0.21 nM

Question: And the “M2/M3 (ratio of KB)” value ([4]; rat, right atrium / trachea)?
Answer: 50

Question: And the “Shift Value 5 minutes after” value (muscarinic M3 receptor)?
Answer: >30

Question: What about the “Shift Value 4 hours after” value (muscarinic M3 receptor) of the same compound?
Answer: >30

Question: What about the “Shift Value 24 hours after” value (muscarinic M3 receptor) of the same compound?
Answer: 3.9
